# According to patent US11274332B2, “Methods of administering 3,4-diaminopyridine” (SERB SA, priority 2011, dated 2022):
# Where two headings read alike, the source gives them in different places.
# Experiment: Example 18 Part 1: single ascending dose PK (5-30 mg) in slow and fast acetylators
# Type: in vivo, human
# Conditions: for half-life / Cmax: both sexes, human, plasma; for half-life: oral, 5-30 mg, read-out: Mean terminal elimination half-lives; for Cmax: po, single oral doses 5 to 30 mg, read-out: mean Cmax, range over doses
# Protocol: The following method was used to analyze concentrations of 3,4-diaminopyridine and N-(4-aminopyridin-3-yl)acetamide in plasma and urine samples for the experiments in Example 18. In the LC/MS/MS method, the human plasma and urine samples were extracted using acetonitrile containing 0.1% formic acid. Samples were analyzed by using HPLC with positive ion electrospray MS/MS detection. The column was an Atlantis HILIC Silica column (3 μm, 3×50 mm) at a temperature of 40° C. Mobile phase A was water containing ammonium formate (20 mM) and 0.1% formic acid. Mobile phase B was acetonitrile/isopropanol (90/10; v/v) containing 0.1% formic acid. The flow rate was 0.90 mL/minute. The gradient conditions for human plasma and urine samples were as follows:
# The LC/MS/MS method was validated to quantify 3,4-DAP in human plasma in the linear calibration range of 0.500 to 500 ng/mL and from 1.00 to 1000 ng/mL for the 3-N-acetyl metabolite.
# The primary objective of the study was to assess the safety and tolerability of 3,4-DAP phosphate after single and multiple doses. The secondary objectives of the study were • Part 1 only: To determine the dose-related PK profile of amifampridine and of 3-N-acetyl amifampridine after single, escalating doses of 3,4-DAP phosphate • Part 2 only: To assess the steady-state plasma PK and accumulation of amifampridine and of 3-N-acetyl amifampridine over multiple days of dosing with 3,4-DAP phosphate An exploratory objective was to examine the overall activity of the N-acetyl transferase enzymes on the metabolism of amifampridine by assessing the PK of amifampridine and 3-N-acetyl amifampridine with phenotypic acetylation activity and genotyping determination of NAT2 gene polymorphisms. Study Design and Plan
# This open-label study in healthy subjects (male and female) was conducted in 2 parts. A total of 26 healthy male and female subjects, 12 in Part 1 (at least 5 of each sex), 4 in Part 2 Group 1, and 10 in Part 2 Group 2 (at least 4 of each sex) were enrolled into the study. The same subjects were not enrolled to participate in both parts. Subjects in Part 2 were dosed only after all subjects of Part 1 completed dosing and at least 24-hours of follow-up safety evaluation after the last dose were completed.
# All subjects were characterized for their metabolic acetylation phenotype and NAT2 genotype in order to divide subjects into two groups of acetylators. Volunteers were genetically typed for highly variant alleles of the N-acetyl transferase 2 enzyme (NAT2) domain on chromosome 8 (according to Example 16) and were phenotyped for acetylation rates with a caffeine challenge test (according to Example 15a). Approximately equal numbers of slow and fast acetylators (as defined by a caffeine challenge test in Example 15a) were enrolled in each group. In Part 2, very slow acetylators with NAT2 activity (ratio 1, Example 15a) below 0.06 were excluded from participation in the study. In each part of the study, subjects were assessed for PK, safety, and tolerability and all doses were administered within 30 min of ingestion of a meal or a snack.
# Part 1 was a dose-proportionality study in 12 healthy subjects each receiving 4 ascending single oral doses of 3,4-DAP phosphate in a sequential manner (5 mg, 10 mg, 20 mg, and 30 mg). For all 12 subjects, the first 3 doses of oral 3,4-DAP phosphate (5-20 mg) were administered on 3 consecutive days (Days 1-3). Two fast and two slow acetylators (as defined by a caffeine challenge test in Example 15a) were selected as the first 4 enrolled subjects (sentinel subjects). For the 2 fast acetylators the 30 mg dose was administered on Day 4. […] Safety and tolerability data collected for all 4 subjects were reviewed and the safety and tolerability results of the 30 mg dose for these 4 sentinel subjects were acceptable. The 30 mg dose was given to the remaining 8 non-sentinel subjects on Day 7. […]
compound,measurement,setting,value
"Nc1ccncc1N [3,4-DAP, 3,4-diaminopyridine]",Mean AUC0-t Slow/fast Ratio,5 mg single dose,10.4
same,Mean CL/F Slow/fast Ratio,5 mg single dose,0.114
same,Mean Cmax Slow/fast Ratio,5 mg single dose,4.50
same,Mean t1/2 Slow/fast Ratio,5 mg single dose,3.68
same,Mean AUC0-t Slow/fast Ratio,10 mg single dose,6.94
same,Mean CL/F Slow/fast Ratio,10 mg single dose,0.163
same,Mean Cmax Slow/fast Ratio,10 mg single dose,3.47
same,Mean t1/2 Slow/fast Ratio,10 mg single dose,2.15
same,Mean AUC0-t Slow/fast Ratio,20 mg single dose,5.75
same,Mean CL/F Slow/fast Ratio,20 mg single dose,0.186
same,Mean Cmax Slow/fast Ratio,20 mg single dose,3.50
same,Mean t1/2 Slow/fast Ratio,20 mg single dose,2.38
same,Mean AUC0-t Slow/fast Ratio,30 mg single dose,5.29
same,Mean CL/F Slow/fast Ratio,30 mg single dose,0.196
same,Mean Cmax Slow/fast Ratio,30 mg single dose,3.51
same,Mean t1/2 Slow/fast Ratio,30 mg single dose,1.88
same,half-life,fast acetylators,36.2 to 99 min
same,half-life,slow acetylators,133 to 187 min
same,Cmax,fast acetylator phenotype,3.98 to 25.5 ng/mL
same,Cmax,slow acetylator phenotype,17.9 to 89.6 ng/mL
same,AUC increase over 6-fold dose range (5 to 30 mg),fast acetylators,15.1 fold
same,Cmax increase over 6-fold dose range (5 to 30 mg),fast acetylators,6.41 fold
same,AUC increase over 6-fold dose range (5 to 30 mg),slow acetylators,7.64 fold
same,Cmax increase over 6-fold dose range (5 to 30 mg),slow acetylators,5.01 fold
